This experiment concerns Wnt activity (wnt-responsive SP5 promoter luciferase reporter in SW480 cells). The experiment can be described thus: Wnt reporter screening assay: SP5 promoter-driven firefly luciferase in SW480 cells. The experiment is classed as cell-based. To be noted: Homo sapiens; SW480 colon cancer cells with SP5 promoter luciferase reporter; half-log dilutions, ten micromolar top concentration; read 24-40 h after compound addition; normalized to DMSO; read-out: Wnt inhibition. The source says: Another screening assay for Wnt activity is described as follows. Reporter cell lines can be generated by stably transducing cells of cancer cell lines (e.g., colon cancer) with a lentiviral construct that include a wnt-responsive promoter driving expression of the firefly luciferase gene.
Lentiviral constructs can be made in which the SP5 promoter, a promoter having eight TCF/LEF binding sites derived from the SP5 promoter, is linked upstream of the firefly luciferase gene. The lentiviral constructs can also include a hygromycin resistance gene as a selectable marker. The SP5 promoter construct can be used to transduce SW480 cells, a colon cancer cell line having a mutated APC gene that generates a truncated APC protein, leading to de-regulated accumulation of β-catenin.
Cultured SW480 cells bearing a reporter construct can be distributed at approximately 10,000 cells per well into 96 well or 384 well plates. Compounds from a small molecule compound library can then be added to the wells in half-log dilutions using a ten micromolar top concentration. A series of control wells for each cell type receive only buffer and compound solvent. Twenty-four to forty hours after the addition of compound, reporter activity for luciferase can be assayed, for example, by addition of the BrightGlo luminescence reagent (Promega) and the Victor3 plate reader (Perkin Elmer). Readings can be normalized to DMSO only treated cells, and normalized activities can then be used in the IC50 calculations.
On the technique in general: A reporter such as luciferase makes a cellular process visible.

Where only a bound is given, the exact number is not on record here.

Consider `O=C(Nc1ccc(-c2ccccc2)nc1)c1n[nH]c2ccc(-c3cncc(CN4CCCC4)c3)cc12` [Compound 50, N-(6-Phenylpyridin-3-yl)-5-(5-(pyrrolidin-1-ylmethyl)pyridin-3-yl)-1H-indazole-3-carboxamide], for which the IC50 worked out at 71 nM.

As to `O=C(Nc1cccnc1)c1n[nH]c2ccc(-c3ccc(N4CCCC4)nc3)cc12` [Compound 51, N-(Pyridin-3-yl)-5-(6-(pyrrolidin-1-yl)pyridin-3-yl)-1H-indazole-3-carboxamide], the IC50 worked out at 26 nM.

Take `N#Cc1ccc(NC(=O)c2n[nH]c3ccc(-c4cncc(CN5CCCC5)c4)cc23)cn1` [Compound 52, N-(6-Cyanopyridin-3-yl)-5-(5-(pyrrolidin-1-ylmethyl)pyridin-3-yl)-1H-indazole-3-carboxamide]: the IC50 was 57 nM.

For `O=C(Nc1ccc(N2CCCC2)nc1)c1n[nH]c2ccc(-c3cccnc3)cc12` [Compound 53, 5-(Pyridin-3-yl)-N-(6-(pyrrolidin-1-yl)pyridin-3-yl)-1H-indazole-3-carboxamide], the IC50 worked out at 63 nM.

Regarding `COc1ccc(-c2ccc3[nH]nc(C(=O)Nc4cccnc4)c3c2)cn1` [Compound 54, 5-(6-Methoxypyridin-3-yl)-N-(pyridin-3-yl)-1H-indazole-3-carboxamide], the IC50 was found to be 158 nM.

`O=C(Nc1cccnc1)c1n[nH]c2ccc(-c3cncc(Cc4ccccc4)c3)cc12` [Compound 55, 5-(5-Benzylpyridin-3-yl)-N-(pyridin-3-yl)-1H-indazole-3-carboxamide]: the IC50 came to 44 nM.

For `O=C(Nc1cccnc1)c1n[nH]c2ccc(-c3cncc(Oc4ccccc4)c3)cc12` [Compound 56, 5-(5-Phenoxypyridin-3-yl)-N-(pyridin-3-yl)-1H-indazole-3-carboxamide], the IC50 came to 160 nM.

Turning to `O=C(Nc1cnccc1C(F)(F)F)c1n[nH]c2ccc(-c3cncc(CN4CCCC4)c3)cc12` [Compound 57, 5-(5-(Pyrrolidin-1-ylmethyl)pyridin-3-yl)-N-(4-(trifluoromethyl)pyridin-3-yl)-1H-indazole-3-carboxamide], the IC50 was at least 10000 nM.

Take `O=C(Nc1cnccc1NC(=O)C1CC1)c1n[nH]c2ccc(-c3cccnc3)cc12` [Compound 58, N-(4-(Cyclopropanecarboxamido)pyridin-3-yl)-5-(pyridin-3-yl)-1H-indazole-3-carboxamide]: the IC50 amounted to 71 nM.

Consider `O=C(NC1CCCCC1)c1cncc(-c2ccc3[nH]nc(C(=O)Nc4cccnc4)c3c2)c1` [Compound 59, 5-(5-(Cyclohexylcarbamoyl)pyridin-3-yl)-N-(pyridin-3-yl)-1H-indazole-3-carboxamide], for which the IC50 amounted to 3100 nM.

With `CN1CCN(Cc2cc(F)cc(-c3ccc4[nH]nc(C(=O)Nc5cnccc5C(F)(F)F)c4c3)c2)CC1` [Compound 60, 5-(3-Fluoro-5-((4-methylpiperazin-1-yl)methyl)phenyl)-N-(4-(trifluoromethyl)pyridin-3-yl)-1H-indazole-3-carboxamide], the IC50 is at least 10000 nM.

As to `CN1CCN(Cc2cncc(-c3ccc4[nH]nc(C(=O)Nc5cccnc5)c4c3)c2)CC1` [Compound 61, 5-(5-((4-Methylpiperazin-1-yl)methyl)pyridin-3-yl)-N-(pyridin-3-yl)-1H-indazole-3-carboxamide], the IC50 is 239 nM.

For `N#Cc1ccc(NC(=O)c2n[nH]c3ccc(-c4cncc(CN5CCCCC5)c4)cc23)cn1` [Compound 62, N-(6-cyanopyridin-3-yl)-5-(5-(piperidin-1-ylmethyl)pyridin-3-yl)-1H-indazole-3-carboxamide], the IC50 stood at 16 nM.

In the case of `O=C(Nc1ccc(C(F)(F)F)nc1)c1n[nH]c2ccc(-c3cncc(CN4CCCCC4)c3)cc12` [Compound 63, 5-(5-(Piperidin-1-ylmethyl)pyridin-3-yl)-N-(6-(trifluoromethyl)pyridin-3-yl)-1H-indazole-3-carboxamide], the IC50 came out at 100 nM.

As to `O=C(Nc1cccnc1)c1n[nH]c2ccc(-c3cncc(CN4CCOCC4)c3)cc12` [Compound 64, 5-(5-(Morpholinomethyl)pyridin-3-yl)-N-(pyridin-3-yl)-1H-indazole-3-carboxamide], the IC50 came to 6 nM.

Regarding `O=C(Nc1ccc(-c2ccccc2)nc1)c1n[nH]c2ccc(-c3cncc(CN4CCCCC4)c3)cc12` [Compound 65, N-(6-Phenylpyridin-3-yl)-5-(5-(piperidin-1-ylmethyl)pyridin-3-yl)-1H-indazole-3-carboxamide], the IC50 is 101 nM.

Turning to `N#Cc1cncc(-c2ccc3[nH]nc(C(=O)Nc4cccnc4)c3c2)c1` [Compound 66, 5-(5-Cyanopyridin-3-yl)-N-(pyridin-3-yl)-1H-indazole-3-carboxamide], the IC50 was at least 10000 nM.

In the case of `O=C(Nc1cccnc1)c1n[nH]c2ccc(-c3cc(F)cc(CN4CCCCC4)c3)cc12` [Compound 67, 5-(3-Fluoro-5-(piperidin-1-ylmethyl)phenyl)-N-(pyridin-3-yl)-1H-indazole-3-carboxamide], the IC50 is at least 10000 nM.

In the case of `O=C(Nc1ccc(C(F)(F)F)nc1)c1n[nH]c2ccc(-c3cncc(CN4CCOCC4)c3)cc12` [Compound 68, 5-(5-(Morpholinomethyl)pyridin-3-yl)-N-(6-(trifluoromethyl)pyridin-3-yl)-1H-indazole-3-carboxamide], the IC50 came out at 48 nM.

Turning to `O=C(Nc1ccc(N2CCOCC2)nc1)c1n[nH]c2ccc(-c3cncc(CN4CCCCC4)c3)cc12` [Compound 69, N-(6-Morpholinopyridin-3-yl)-5-(5-(piperidin-1-ylmethyl)pyridin-3-yl)-1H-indazole-3-carboxamide], the IC50 was 50 nM.

As to `CN1CCN(c2ccc(NC(=O)c3n[nH]c4ccc(-c5cncc(CN6CCCCC6)c5)cc34)cn2)CC1` [Compound 70, N-(6-(4-Methylpiperazin-1-yl)pyridin-3-yl)-5-(5-(piperidin-1-ylmethyl)pyridin-3-yl)-1H-indazole-3-carboxamide], the IC50 worked out at 41 nM.

In the case of `O=C(Nc1ccc(N2CCCC2)nc1)c1n[nH]c2ccc(-c3cncc(CN4CCCCC4)c3)cc12` [Compound 71, 5-(5-(Piperidin-1-ylmethyl)pyridin-3-yl)-N-(6-(pyrrolidin-1-yl)pyridin-3-yl)-1H-indazole-3-carboxamide], the IC50 worked out at 25 nM.

Turning to `O=C(Nc1ccc(-c2cccc(F)c2)nc1)c1n[nH]c2ccc(-c3cncc(CN4CCCCC4)c3)cc12` [Compound 72, N-(6-(3-Fluorophenyl)pyridin-3-yl)-5-(5-(piperidin-1-ylmethyl)pyridin-3-yl)-1H-indazole-3-carboxamide], the IC50 was determined as 215 nM.

As for `O=C(Nc1ccc(-c2ccc(F)cc2)nc1)c1n[nH]c2ccc(-c3cncc(CN4CCCCC4)c3)cc12` [Compound 73, N-(6-(4-Fluorophenyl)pyridin-3-yl)-5-(5-(piperidin-1-ylmethyl)pyridin-3-yl)-1H-indazole-3-carboxamide], the IC50 stood at 322 nM.

In the case of `CN(C)CCN(C)c1ccc(NC(=O)c2n[nH]c3ccc(-c4cncc(CN5CCCCC5)c4)cc23)cn1` [Compound 74, N-(6-((2-(Dimethylamino)ethyl)(methyl)amino)pyridin-3-yl)-5-(5-(piperidin-1-ylmethyl)pyridin-3-yl)-1H-indazole-3-carboxamide], the IC50 is 65 nM.

As for `O=C(Nc1ccnnc1)c1n[nH]c2ccc(-c3cncc(CN4CCCCC4)c3)cc12` [Compound 75, 5-(5-(Piperidin-1-ylmethyl)pyridin-3-yl)-N-(pyridazin-4-yl)-1H-indazole-3-carboxamide], the IC50 worked out at 40 nM.

Take `O=C(NCc1cccnc1)c1n[nH]c2ccc(-c3cncc(CN4CCCCC4)c3)cc12` [Compound 76, 5-(5-(Piperidin-1-ylmethyl)pyridin-3-yl)-N-(pyridin-3-ylmethyl)-1H-indazole-3-carboxamide]: the IC50 was found to be 850 nM.

With `O=C(NC1CCCCC1)c1n[nH]c2ccc(-c3cncc(CN4CCCCC4)c3)cc12` [Compound 77, N-Cyclohexyl-5-(5-(piperidin-1-ylmethyl)pyridin-3-yl)-1H-indazole-3-carboxamide], the IC50 stood at 2650 nM.

Regarding `O=C(Nc1ccc2c(c1)OCO2)c1n[nH]c2ccc(-c3cncc(CN4CCCCC4)c3)cc12` [Compound 78, N-(Benzo[d][1,3]dioxol-5-yl)-5-(5-(piperidin-1-ylmethyl)pyridin-3-yl)-1H-indazole-3-carboxamide], the IC50 was found to be 239 nM.

Turning to `O=C(Nc1ccc2c(c1)OCCO2)c1n[nH]c2ccc(-c3cncc(CN4CCCCC4)c3)cc12` [Compound 79, N-(2,3-Dihydrobenzo[b][1,4]dioxin-6-yl)-5-(5-(piperidin-1-ylmethyl)pyridin-3-yl)-1H-indazole-3-carboxamide], the IC50 was 123 nM.

As to `O=C(Nc1cncc(Cc2ccccc2)c1)c1n[nH]c2ccc(-c3cncc(CN4CCCCC4)c3)cc12` [Compound 80, N-(5-Benzylpyridin-3-yl)-5-(5-(piperidin-1-ylmethyl)pyridin-3-yl)-1H-indazole-3-carboxamide], the IC50 worked out at 158 nM.

For the compound `O=C(Nc1cnccn1)c1n[nH]c2ccc(-c3cncc(CN4CCCCC4)c3)cc12` [Compound 81, 5-(5-(Piperidin-1-ylmethyl)pyridin-3-yl)-N-(pyrazin-2-yl)-1H-indazole-3-carboxamide], the IC50 lay within 77 to 142 nM.

Turning to `O=C(Nc1ccccc1)c1n[nH]c2ccc(-c3cncc(CN4CCCCC4)c3)cc12` [Compound 82, N-Phenyl-5-(5-(piperidin-1-ylmethyl)pyridin-3-yl)-1H-indazole-3-carboxamide], the IC50 is 143 to 188 nM.
